Experimental data from US20220370416A1, “COMPOUNDS AND METHODS FOR TARGETED DEGRADATION OF KRAS” (Arvinas Operations, Inc., priority 2020, published 2022).

Molecular target: HiBit-KRAS^G12C (Homo sapiens, UniProt P01116, G12C)
Experiment: HiBit degradation assay in SW1573 HiBit-KRas^G12C cells
Type: cell-based
Design: expressed in transfected cells; host or cells: SW1573 (clone E6), modified pcDNA3.1 vector, TK promoter
Conditions: SW1573 HiBit-KRas^G12C, 0.1% DMSO, 24 hours; read-out: KRas^G12C-HIBit (SW1573; 0.1% DMSO) DC50*
Procedure: Reagents. SW1573 (CRL-2170) and MiaPaCa-2 (CRL-1420) cells were purchased from ATCC. Both cell lines are […] for the G12C mutation in KRAS. SW1573 cells were cultured in DMEM+F12+Glutamax (+Sodium Bicarbonate, +sodium pyruvate, Thermofisher scientific, #10565) supplemented with 10% FBS (Thermofisher scientific, #2060357) and 1% Antibiotic-Antimycotic (Thermofisher scientific, #15240096). MiaPaCa-2 cells were cultured in DMEM+Glutamax media (Thermofisher scientific, #10566) supplemented with 10% FBS (Thermofisher scientific, #2060357) and 1% Antibiotic-Antimycotic (Thermofisher scientific, #15240096). For degradation assays, 384 well plates were purchased from Corning (Corning® CellBIND® 384-well Flat Clear Bottom Black Polystyrene Microplates, Low Flange, #3770). Gambogic acid was purchased from Selleckchem (#S2448). Alamar blue was purchased from Thermofisher scientific (A50101) and used according to manufacturer instructions. The Nano-Glo® HiBit Lytic Detection System and Nano-Glo® HiBit Blotting System were purchased from Promega (#N3050 and #N2410) and used according to manufacturer instructions.
To create the SW1573 HiBit-KRAS^G12C cell line, the nucleotide sequence encoding the 11 amino acid HiBit tag from Promega (Schwinn, M. K. et al. (2018) CRISPR-mediated tagging of endogenous proteins with a luminescent peptide. ACS Chem. Biol. 13(2), 467-474) was appended to the N-terminus of the KRAS^G12C coding sequence. This synthesized DNA was cloned into a modified pcDNA3.1 vector under the control of the thymidine kinase (TK) promoter. This HiBit-KRAS^G12C expressing plasmid was transfected into parental SW1573 cells and colonies were selected using 400 μg/mL zeocin. The resulting clonal lines were screened for expression of HiBit-KRAS^G12C protein using Nano-Glo® HiBit Blotting System. A luminescent band of the correct size for HiBit-KRAS^G12C was detected in several clones. Clone E6 was selected for further studies.
Either SW1573 HiBit-KRas^G12C or MiaPaCa-2 HiBit-KRas^G12C cells were plated at 9000 cells/well in a 384 well plate (Corning #3770). Exemplary heterobifunctional molecules and positive controls were diluted in the appropriate cell media and applied to the plated cells resulting in a final concentration titration of 10 μM to 20 nM in either 0.1% or 0.5% dimethyl sulfoxide (DMSO). Gambogic acid was used as a positive control for cytotoxicity and titrated from 10 μM to 78 nM. All assays were performed in triplicate. Cells were treated with compounds for 24 hours at 37° C. in an incubator containing 5% CO2. Following treatment, alamar blue was used to determine if any compounds led to a loss in cell viability after 24 hours. The 10× alamar blue reagent was added to a final concentration of 1× as recommended by the manufacturer and cells were returned to the incubator for 4 hours. Plates were then allowed to equilibrate to room temperature and fluorescence was measured using a Perkin-Elmer EnVision. After completion of the fluorescence read, the liquid from each well was removed and the cells were washed with PBS. The Nano-Glo® HiBiT detection reagent was prepared according to the manufacturer's instructions and added to each well after the PBS wash was removed. Following incubation at room temperature for 45 minutes, the luminescence was read using the ultra-sensitive luminescence aperture on the Envision instrument.
Fluorescence values from the alamar blue treatment were normalized to the DMSO only control for each compound titration. We hypothesized that compounds that led to a ≥50% loss in cell viability of the KRAS-independent SW1573 HiBit-KRas^G12C cells were likely generally cytotoxic and loss of HiBit-KRAS^G12C signal from these compounds may be due to lower cell number and not specific KRAS^G12C degradation. These points were therefore excluded from the data analysis for degradation. […]

Chain of HiBit-KRAS^G12C (P01116 1-186 isoform P01116-2 G12C limits assumed): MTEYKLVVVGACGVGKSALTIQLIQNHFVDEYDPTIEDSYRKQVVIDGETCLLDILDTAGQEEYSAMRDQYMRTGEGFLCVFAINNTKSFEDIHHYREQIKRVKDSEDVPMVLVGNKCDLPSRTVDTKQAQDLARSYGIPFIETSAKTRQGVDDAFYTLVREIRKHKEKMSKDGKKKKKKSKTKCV

SMILES	DC50 [µM]
C=CC(=O)N1CCN(c2nc(OCCN3CCC(COCC(=O)N[C@H](C(=O)N4C[C@H](O)C[C@H]4C(=O)N[C@@H](C)c4ccc(-c5scnc5C)cc4)C(C)(C)C)CC3)nc3c(F)c(-c4cc(O)cc5ccccc45)c(Cl)cc23)CC1 (atropisomer, axis not shown) [Compound 10, (2S,4R)-1-[(2S)-2-(2-{[1-(2-{[6-chloro-8-fluoro-7-(3-hydroxynaphthalen-1-yl)-4-[4-(prop-2-enoyl)piperazin-1-yl]quinazolin-2-yl]oxy}ethyl)piperidin-4-yl]methoxy}acetamido)-3,3-dimethylbutanoyl]-4-hydroxy-N-[(1S)-1-[4-(4-methyl-1,3-thiazol-5-yl)phenyl]ethyl]pyrrolidine-2-carboxamide]	> 1
C=C(F)C(=O)N1CCN(c2nc(OCCN3CCC(OCCOc4cc([C@@H](C(=O)N5C[C@H](O)C[C@H]5C(=O)N[C@@H](C)c5ccc(-c6scnc6C)cc5)C(C)C)on4)CC3)nc3c(F)c(-c4cc(O)cc5ccccc45)c(Cl)cc23)C[C@@H]1CC#N [Compound 1, (2S,4R)-1-[(2S)-2-{3-[2-({1-[2-({6-chloro-4-[(3S)-3-(cyanomethyl)-4-(2-fluoroprop-2-enoyl)piperazin-1-yl]-8-fluoro-7-(3-hydroxynaphthalen-1-yl)quinazolin-2-yl}oxy)ethyl]piperidin-4-yl}oxy)ethoxy]-1,2-oxazol-5-yl}-3-methylbutanoyl]-4-hydroxy-N-[(1S)-1-[4-(4-methyl-1,3-thiazol-5-yl)phenyl]ethyl]pyrrolidine-2-carboxamide]	> 1
C=CC(=O)N1CCN(c2nc(OCCN3CCC(OCCOc4cc([C@H](C(=O)N5C[C@@H](O)C[C@H]5C(=O)N[C@@H](C)c5ccc(-c6scnc6C)cc5)C(C)C)on4)CC3)nc3c(F)c(-c4cc(O)cc5ccccc45)c(Cl)cc23)C[C@@H]1CC#N [Compound 2, (2S,4S)-1-[(2R)-2-{3-[2-({1-[2-({6-chloro-4-[(3S)-3-(cyanomethyl)-4-(prop-2-enoyl)piperazin-1-yl]-8-fluoro-7-(3-hydroxynaphthalen-1-yl)quinazolin-2-yl}oxy)ethyl]piperidin-4-yl}oxy)ethoxy]-1,2-oxazol-5-yl}-3-methylbutanoyl]-4-hydroxy-N-[(1S)-1-[4-(4-methyl-1,3-thiazol-5-yl)phenyl]ethyl]pyrrolidine-2-carboxamide]	> 1
C=CC(=O)N1CCN(c2nc(OCCN3CCC(COCC(=O)N[C@H](C(=O)N4C[C@@H](O)C[C@H]4C(=O)N[C@@H](C)c4ccc(-c5scnc5C)cc4)C(C)(C)C)CC3)nc3c(F)c(-c4cc(O)cc5ccccc45)c(Cl)cc23)CC1 [Compound 8, (2S,4S)-1-[(2S)-2-(2-{[1-(2-{[6-chloro-8-fluoro-7-(3-hydroxynaphthalen-1-yl)-4-[4-(prop-2-enoyl)piperazin-1-yl]quinazolin-2-yl]oxy}ethyl)piperidin-4-yl]methoxy}acetamido)-3,3-dimethylbutanoyl]-4-hydroxy-N-[(1S)-1-[4-(4-methyl-1,3-thiazol-5-yl)phenyl]ethyl]pyrrolidine-2-carboxamide]	> 1
C=C(F)C(=O)N1CCN(c2nc(O[C@H](C)CN3CCC(COc4cc([C@H](C(=O)N5C[C@H](O)C[C@H]5C(=O)N[C@@H](C)c5ccc(-c6scnc6C)cc5)C(C)C)on4)CC3)nc3c(F)c(-c4cc(O)cc5ccccc45)c(Cl)cc23)CC1 [Compound 14, (2S,4R)-1-[(2R)-2-[3-({1-[(2R)-2-({6-chloro-8-fluoro-4-[4-(2-fluoroprop-2-enoyl)piperazin-1-yl]-7-(3-hydroxynaphthalen-1-yl)quinazolin-2-yl}oxy)propyl]piperidin-4-yl}methoxy)-1,2-oxazol-5-yl]-3-methylbutanoyl]-4-hydroxy-N-[(1S)-1-[4-(4-methyl-1,3-thiazol-5-yl)phenyl]ethyl]pyrrolidine-2-carboxamide]	> 1

Next, values leading:

DC50 [µM]	SMILES
> 1	C=CC(=O)N1CCN(c2nc(O[C@H](C)CN3CCC(OCCOCC(=O)N[C@H](C(=O)N4C[C@H](O)C[C@H]4C(=O)N[C@@H](C)c4ccc(-c5scnc5C)cc4)C(C)(C)C)CC3)nc3c(F)c(-c4cc(O)cc5ccccc45)c(Cl)cc23)CC1 (atropisomer, axis not shown) [Compound 85, (2S,4R)-1-[(2S)-2-{2-[2-({1-[(2R)-2-{[6-chloro-8-fluoro-7-(3-hydroxynaphthalen-1-yl)-4-[4-(prop-2-enoyl)piperazin-1-yl]quinazolin-2-yl]oxy}propyl]piperidin-4-yl}oxy)ethoxy]acetamido}-3,3-dimethylbutanoyl]-4-hydroxy-N-[(1S)-1-[4-(4-methyl-1,3-thiazol-5-yl)phenyl]ethyl]pyrrolidine-2-carboxamide]
> 1	C=C(F)C(=O)N1CCN(c2nc(O[C@H](C)CN3CCC(COc4cc([C@@H](C(=O)N5C[C@H](O)C[C@H]5C(=O)N[C@@H](C)c5ccc(-c6scnc6C)cc5)C(C)C)on4)CC3)nc3c(F)c(-c4cc(O)cc5ccccc45)c(Cl)cc23)CC1 [Compound 18, (2S,4R)-1-[(2S)-2-[3-({1-[(2R)-2-({6-chloro-8-fluoro-4-[4-(2-fluoroprop-2-enoyl)piperazin-1-yl]-7-(3-hydroxynaphthalen-1-yl)quinazolin-2-yl}oxy)propyl]piperidin-4-yl}methoxy)-1,2-oxazol-5-yl]-3-methylbutanoyl]-4-hydroxy-N-[(1S)-1-[4-(4-methyl-1,3-thiazol-5-yl)phenyl]ethyl]pyrrolidine-2-carboxamide]
> 1	C=CC(=O)N1CCN(c2nc(O[C@H](C)CN3CCC(COc4cc([C@H](C(=O)N5C[C@H](O)C[C@H]5C(=O)N[C@@H](C)c5ccc(-c6scnc6C)cc5)C(C)C)on4)CC3)nc3c(F)c(-c4cc(O)cc5ccccc45)c(Cl)cc23)CC1 [Compound 19, (2S,4R)-1-[(2R)-2-[3-({1-[(2R)-2-{[6-chloro-8-fluoro-7-(3-hydroxynaphthalen-1-yl)-4-[4-(prop-2-enoyl)piperazin-1-yl]quinazolin-2-yl]oxy}propyl]piperidin-4-yl}methoxy)-1,2-oxazol-5-yl]-3-methylbutanoyl]-4-hydroxy-N-[(1S)-1-[4-(4-methyl-1,3-thiazol-5-yl)phenyl]ethyl]pyrrolidine-2-carboxamide]
> 1	C=CC(=O)N1CCN(c2nc(OCCN3CCC(OCCOCC(=O)N[C@H](C(=O)N4C[C@H](O)C[C@H]4C(=O)N[C@@H](C)c4ccc(-c5scnc5C)cc4)C(C)(C)C)CC3)nc3c(F)c(-c4cccc5cccc(C)c45)c(Cl)cc23)C[C@@H]1CC#N [Compound 23, (2S,4R)-1-[(2S)-2-{2-[2-({1-[2-({6-chloro-4-[(3S)-3-(cyanomethyl)-4-(prop-2-enoyl)piperazin-1-yl]-8-fluoro-7-(8-methylnaphthalen-1-yl)quinazolin-2-yl}oxy)ethyl]piperidin-4-yl}oxy)ethoxy]acetamido}-3,3-dimethylbutanoyl]-4-hydroxy-N-[(1S)-1-[4-(4-methyl-1,3-thiazol-5-yl)phenyl]ethyl]pyrrolidine-2-carboxamide]
